Series [1] is described as follows: Water solubility of solvents at 25° C. (saturated solution, chromatographic analysis). It counts as physicochemical. Here is the method: Typically, solvents which have aqueous solubilities of about (or at least) 0.1% w/w [at the relevant temperature] can dissolve appreciably in agrochemical spray tanks under normal dilution conditions [for example, temperatures of from just above freezing to 35° C.]. […] Solvents such as acetophenone are normally formulated with an oil of much lower water solubility. […] Table 2 provides water solubilities for a number of solvents at 25° C. Saturated solutions of each solvent in deionised water were prepared by leaving excess solvent in contact with water for a period of at least two weeks. After this time a sample of the water was analysed chromatographically to determine the concentration of solvent present.

The test system of series [2] is Alopecurus Myosuroides (ALOMY). As to the kind of experiment: Glass house adjuvant test with pinoxaden, weed kill. Particulars: pinoxaden 7.5 g/ha + adjuvant 0.2% by volume in spray-tank, mean (standard deviation), 3 replicates. In kind it is in vivo. As for the experimental part:
(§1) The weed species Setaria Viridis (SETVI), Lolium Perenne (LOLPE), Avena Fatua (AVEFA) and Alopecurus Myosuroides (ALOMY) were grown under glass house conditions and sprayed with the herbicide pinoxaden at a rate of 7.5 grams of pesticide per hectare. Weeds were treated with pinoxaden in the absence of (E)-but-2-enedioic acid dibutyl ester (as a control) and also with (E)-but-2-enedioic acid dibutyl ester added to the spray-tank at a concentration of 0.2% by volume. After both 14 and 21 days the efficacy of the herbicide was assessed based on the percentage of the weeds that had been killed. Three replicates were used in all cases. The average percentage of weeds killed is quoted in Table 5 for each weed species either with the adjuvant or without (control). Results have been averaged across three replicates. The standard deviation for each result is shown in brackets after the result.

Another series relates to Avena Fatua (AVEFA). Described as above. In kind it is in vivo. Particulars: pinoxaden 7.5 g/ha + adjuvant 0.2% by volume in spray-tank, mean (standard deviation), 3 replicates. Here is the method: as §1
The next series concerns Lolium Perenne (LOLPE). Described as above. In kind it is in vivo. Particulars: pinoxaden 7.5 g/ha + adjuvant 0.2% by volume in spray-tank, mean (standard deviation), 3 replicates. As for the experimental part:
as §1

The next series relates to Setaria Viridis (SETVI). The series is described as above. It counts as in vivo. Particulars: pinoxaden 7.5 g/ha + adjuvant 0.2% by volume in spray-tank, mean (standard deviation), 3 replicates. Here is the method:
as §1

The subject of series [3] is Amaranthus Tuberculatus (AMATU). As to the kind of experiment: Glass house adjuvant test with mesotrione, weed kill. In kind it is in vivo. Particulars: mesotrione 45 g/ha + adjuvant 0.2% v/v in spray-tank, mean (standard deviation), 3 replicates. Here is the method:
The weed species Polygonum Convolvulus, Digitaria Sanguinalis, Brachiaria Decumbens and Amaranthus Tuberculatus were grown under glass house conditions and sprayed with the herbicide mesotrione at rate of 45 grams of pesticide per hectare. Weeds were treated with the mesotrione in the absence of (E)-but-2-enedioic acid dibutyl ester (as a control) and also with (E)-but-2-enedioic acid dibutyl ester added to the spray-tank at a concentration of 0.2% v/v. After 14 and 21 days the efficacy of the herbicide was assessed based on the percentage of the weeds that had been killed. Three replicates were used in all cases. The performance of the solvent was assessed by averaging the three replicates at each time period and for each weed. The standard deviation for each result is shown in brackets after the average percentage weed kill.

The test system of series [4] is Brachiaria Decumbens (BRADE). The description is as above. In kind it is in vivo. Particulars: mesotrione 45 g/ha + adjuvant 0.2% v/v in spray-tank, mean (standard deviation), 3 replicates.
The test system of series [5] is Digitaria Sanguinalis (DIGSA). The series is described as above. It counts as in vivo. Particulars: mesotrione 45 g/ha + adjuvant 0.2% v/v in spray-tank, mean (standard deviation), 3 replicates.
Series [6] concerns Polygonum Convolvulus (POLCO). Described as above. Particulars: mesotrione 45 g/ha + adjuvant 0.2% v/v in spray-tank, mean (standard deviation), 3 replicates. It counts as in vivo.
Series [7] in a line: Solubility of chlorothalonil in solvents at 20° C. It counts as physicochemical.
The mark [8] stands for this setting: solvent in deionised water, 25° C., contact at least two weeks.

Counter-ions that a name gives are not always drawn. Like-named read-outs stand apart in the source and are kept apart here.

As for `CCCCOC(=O)/C=C/C(=O)OCCCC` [(E)-But-2-enedioic acid dibutyl ester], the “% water solubility [by weight at 25° C.]” value in series [1] is on record as 0.04 % by weight. The results for the “average percentage of weeds killed, ALOMY” value in series [2] (14 days after application) and in series [2] (21 days after application) were 20(17.3) % and 33.3(15.3) %, respectively. For the same compound, the “average percentage of weeds killed, AVEFA” value with Avena Fatua (AVEFA) (14 days after application) is listed as 20(10) %; in the series on Avena Fatua (AVEFA) (21 days after application), 16.7(5.8) %. Also, the “average percentage of weeds killed, LOLPE” value with Lolium Perenne (LOLPE) (14 days after application) was 13.3(5.8) %; in the series on Lolium Perenne (LOLPE) (21 days after application), 6.7(5.8) %. The “average percentage of weeds killed, SETVI” value in the series with Setaria Viridis (SETVI) (14 days after application) is 20(0) %; in the series with Setaria Viridis (SETVI) (21 days after application), 20(10) %. In addition, the “average percentage weed kill, AMATU” value in series [3] (14 days after application) is recorded as 76.7(5.8) %; in series [3] (21 days after application) it was 94(3.6) %. For the same compound, the “average percentage weed kill, BRADE” value in series [4] (14 days after application) is 43.3(5.8) %; in series [4] (21 days after application), 40(0) %. For the same compound, the “average percentage weed kill, DIGSA” value is reported as 36.7(2.9) % in series [5] (14 days after application) and 41.7(7.6) % in series [5] (21 days after application). Further, the “average percentage weed kill, POLCO” value in [6] (14 days after application) and in [6] (21 days after application) was 80(10) % each time.
As to `CC(=O)c1ccccc1` [Acetophenone (methyl phenyl ketone), methyl phenyl ketone], the “% water solubility [by weight at 25° C.]” value in [1] worked out at 0.9 % by weight.
As to `OCc1ccccc1` [Benzyl alcohol, benzene methanol, Benzyl alcohol], in series [1], the “% water solubility [by weight at 25° C.]” value is listed as 4.4 % by weight.
With `C1CCC2CCCCC2C1` (stereo not drawn) [Decalin, decahydronaphthalene], the “% water solubility [by weight at 25° C.]” value in [1] (setting [8]) was found to be 0.7 % by weight.
On to `CCOC(=O)/C=C/C(=O)OCC` [Diethyl fumarate], for which the “% water solubility [by weight at 25° C.]” value in series [1] was determined as 0.8 % by weight.
As for `C=C(C)[C@H]1CC=C(C)CC1` [Dipentene, limonene], the “% water solubility [by weight at 25° C.]” value in series [1] (setting [8]) stood at 0.098 % by weight. Besides, in series [7], the “Chlorothalonil solubility in the solvent” value turned out to be 0.18 percentage w/w.
Turning to `CCCCCCCCCCCCc1ccccc1` [Dodecylbenzene, 1-phenyldodecane], the “% water solubility [by weight at 25° C.]” value in series [1] was determined as 0.000026 % by weight.
For the compound `c1ccc2c(c1)CCCC2` [Tetralin, tetrahydronaphthalene], in series [1] (setting [8]), the “% water solubility [by weight at 25° C.]” value worked out at 0.18 % by weight.
`CC(=O)OCC(COC(C)=O)OC(C)=O` [Triacetin (glycerol triacetate), glycerol triacetate]: the “% water solubility [by weight at 25° C.]” value in series [1] is listed as 7.7 % by weight.
As to “dimethyl heptamide [Genagen ™ 4166 (dimethyl heptamide)]”, the “% water solubility [by weight at 25° C.]” value in [1] (setting [8]) amounted to 0.7 % by weight.

The record behind these values is US9458085B2, “Formulations” (priority 2010, dated 2016).
